In patent US7572439B2, “Enzyme disruption of bacterial biofilms” (priority 2002, dated 2009):

Experiments:
[1] = system: Methicillin Sensitive S. aureus; experiment: Treatment of established infection in jugular vein catheterized mice; format: in vivo; details: Table 4, MSSA, Nafcillin (50) b.i.d. 4 days
Description: Jugular vein catheterized mice (Charles River Labs) were used. The mice were challenged through the tail vein with S. aureus (10^3-10^4CFU, a much lower dose than the 5×10^6 CFU or greater typically necessary to establish an infection in mice not catheterized). Treatment began four days post challenge when infection was established. Lysostaphin was administered through the indwelling catheter in a volume of 200 μ PBS (in the case of methicillin resistant S. aureus, nafcillin was added to the treatment). After the final treatment of the day, 50 μl of a lock solution (50% sterile glucose solution) with lysostaphin (and nafcillin, when used), added at the same concentration as used for treatment, was put in the catheters. Control mice received equal treatments with PBS and lock solution alone.
On the day following the last treatment the liver, heart and a portion of the catheter in the heart were harvested. The catheter portions were sonicated to release bacteria.

[2] = system: biofilms of S. aureus SA113; experiment: Kinetic effect on established biofilms: absorbance at 650 nm and safranin staining; format: cell-based; details: for effect on established biofilms (safranin): 400 μg/ml oxacillin or 800 μg/ml vancomycin, PBS or TSB, 24 hours; for absorbance of biofilms at 650 nM: as much as 400 μg/ml oxacillin or 800 μg/ml vancomycin in PBS; for absorbance of biofilms at 650 nM / effect on S. aureus biofilms (FIG. 8 legend): twenty four hours; for effect on absorbance of biofilms: in TSB, 24 hours (data not shown); for effect on S. aureus biofilms (FIG. 8 legend): PBS or bacterial media
Description: Oxacillin and vancomycin have often been used in antibiotic susceptibility studies of S. aureus biofilms. […] Twenty four-hour biofilms in polystyrene 96-well tissue culture plates were treated with serial dilutions of lysostaphin, oxacillin, and vancomycin (FIG. 7).
In order to examine the kinetic effect of lysostaphin, oxacillin and vancomycin on biofilms, the absorbance of established biofilms in a 96-well tissue culture plate was measured over time (0-3 hrs and 24 hrs). Tissue culture wells containing biofilms of S. aureus SA113 were incubated with serial dilutions of lysostaphin ([…]), oxacillin ([…]), or vancomycin ([…]) for 24 hours, and the absorbance at 650 nm was monitored every 20 minutes for the first 3 hours and then again at 24 hours. The absorbance of the lysostaphin-treated biofilms dropped from approximately 0.35 at time zero to 0.125 after 3 hours of treatment and dropped to near base line (0.04) by 24 hrs when treated with a dose of lysostaphin of 6.25 μg/ml in PBS (FIG. 7). […] Since antimicrobials like oxacillin or vancomycin are effective against actively metabolizing bacteria, a similar experiment was conducted but the biofilms were incubated with the three anti-microbials in bacterial media (TSB). Very similar results were also found when the assay was conducted in TSB rather than PBS.
The capacity of the three agents to disrupt S. aureus biofilms in polystyrene wells can be visualized by comparing the staining intensity of treated wells versus control (buffer-treated) wells.

| Structure (SMILES) | S. aureus recovered, Heart [1] [CFU] | effect on established biofilms (safranin) [2] | absorbance of biofilms at 650 nM [2] | effect on absorbance of biofilms [2] | effect on absorbance of S. aureus biofilms over time (FIG. 7 legend) ([2]; lysostaphin 6.25 cg/ml, vancomycin 800 cg/ml, oxacillin 400 cg/ml) | effect on S. aureus biofilms (FIG. 8 legend) ([2]; oxacillin 1.6-400 cg/ml, vancomycin 3.2-800 cg/ml) | effect on absorbance of S. aureus biofilms over time (FIG. 7 legend) ([2]; lysostaphin 6.25 μg/ml, vancomycin 800 μg/ml, oxacillin 400 μg/ml) | effect on S. aureus biofilms (FIG. 8 legend) ([2]; oxacillin 1.6-400 μg/ml, vancomycin 3.2-800 μg/ml) |
| --- | --- | --- | --- | --- | --- | --- | --- | --- |
| CCOc1ccc2ccccc2c1C(=O)N[C@@H]1C(=O)N2[C@@H]1SC(C)(C)[C@@H]2C(=O)O [Nafcillin, nafcillin, reference compound] | 0 |  |  |  |  |  |  |  |
| Cc1onc(-c2ccccc2)c1C(=O)N[C@@H]1C(=O)N2[C@@H]1SC(C)(C)[C@@H]2C(=O)O [oxacillin] |  | no obvious effect | around 0.325 | little or no effect | no effect | no effect |  |  |
| CN[C@H](CC(C)C)C(=O)N[C@H]1C(=O)N[C@@H](CC(N)=O)C(=O)N[C@H]2C(=O)N[C@H]3C(=O)N[C@H](C(=O)N[C@H](C(=O)O)c4cc(O)cc(O)c4-c4cc3ccc4O)[C@H](O)c3ccc(c(Cl)c3)Oc3cc2cc(c3O[C@@H]2O[C@H](CO)[C@@H](O)[C@H](O)[C@H]2O[C@H]2C[C@](C)(N)[C@H](O)[C@H](C)O2)Oc2ccc(cc2Cl)[C@H]1O [vancomycin] |  | no obvious effect | around 0.325 | little or no effect |  |  | no effect | no effect |
